Results on two molecules are retold here after paper PMC5400251, “Effect of quinoline based 1,2,3-triazole and its structural analogues on growth and virulence attributes of Candida albicans” (PLoS ONE, 2017).

For series [1], the system named is proteinase secretion. In words: Proteinase assay (BSA agar, Pz value). It counts as cell-based, C. albicans ATCC 90028. As to conditions: at MIC, 1 h exposure. The protocol:
Following incubation, 1.5 mL of the yeast culture was taken into micro centrifuge tubes and centrifuged at 3000 rpm, for 5 min. The pellet obtained was washed by phosphate buffer saline (PBS) twice to remove the residual medium. […] Volumes of 1μL were placed at equidistant points on proteinase agar medium (0.1% yeast nitrogen base w/o amino acids; 0.145% ammonium sulfate; 2% glucose with 0.2% (w/v) BSA fraction V mixed into agar at ∼40°C) and incubated at 37°C for 3 days. The experiment was performed in duplicate. Secreted proteinase enzyme will degrade BSA and form zone of clearance around the yeast colonies. An index (Pz value) was used to represent the extent of proteinase activity by different strains of C. albicans. A Pz value of 1.0 depicts no enzyme activity. It was calculated as follows: Pzvalue=diameterofcolony/diameterofcolony+diameterofzoneofdegradation

Series [2] relates to C. albicans D15.9 (FLC-resistant). The experiment in a line: Growth assay (growth curve). It counts as cell-based. As to conditions: sub-MIC (MIC/2). The protocol:
(§1) The C. albicans cells were freshly revived by subculture on the SD agar plate. A loopful of inoculum was introduced into the SD broth and cells were grown for 16 h at 37°C before use. Approximately 2×10^3 cells/mL were then inoculated into the freshly prepared 50 mL sterile SD medium. […] At predetermined time periods (0, 2, 4, 6, 8, 10, 12, 14, 16, 18, 20 22, and 24 after incubation with agitation at 37°C), 1 mL aliquot of each sample was removed from the conical flask and growth was measured tubidometrically at 600 nm using Thermo Multiskan spectrophotometer. Optical density was recorded for each concentration against time (h).

Series [3] concerns C. albicans ATCC 90028 (Standard). The experiment in a line: Growth assay (growth curve). It counts as cell-based. As to conditions: sub-MIC (MIC/2). The protocol:
as §1

In series [4] the test system is C. albicans D27 (FLC-susceptible). In words: Growth assay (growth curve). It counts as cell-based. As to conditions: sub-MIC (MIC/2). The protocol: as §1

A word on the melting point: it is the temperature of the solid-liquid transition.

For `c1ccc(Cn2cc(COc3cccc4cccnc34)nn2)cc1` [Compound 3a], the “Decrease of proteinase secretion” value in series [1] is 21%.

The molecule `Clc1ccc(OCc2cn(Cc3ccccc3)nn2)c2ncccc12` [Compound 3b, 8-((1-Benzyl-1H-1,2,3-triazol-4-yl)methoxy)-5-chloroquinoline] came in with a melting point of 148 to 149 °C. In addition, the “Decrease of proteinase secretion” value in series [1] is recorded as 14%. In addition, the “Time after which growth was observed” value in series [2] is recorded as 14 h. In addition, in series [3], the “Time after which growth was observed” value turned out to be 20 h. In series [4], the “Time after which growth was observed” value is reported as 18 h.
